Experimental data as given in the kinase profiling compilation of Christmann-Franck et al. (2016).

How the values were obtained:
Assay in all cases: KINOMEscan competition binding
Conditions in all cases: compound 10.0 µM
AKT3 (human) = AKT3 (human) (UniProt Q9Y243)
AXL (human) = AXL (human) (UniProt P30530)
BRSK2 (human) = BRSK2 (human) (UniProt Q8IWQ3)
BTK (human) = BTK (human) (UniProt Q06187)
CAMKK2 (human) = CAMKK2 (human) (UniProt Q96RR4)
CDC42BPA (human) = CDC42BPA (human) (UniProt Q5VT25)
CDK2 (human) = CDK2 (human) (UniProt P24941)
CDK5 (human) = CDK5 (human) (UniProt Q00535)
CDK7 (human) = CDK7 (human) (UniProt P50613)
DDR1 (human) = DDR1 (human) (UniProt Q08345)
DYRK2 (human) = DYRK2 (human) (UniProt Q92630)
EPHA1 (human) = EPHA1 (human) (UniProt P21709)
EPHB4 (human) = EPHB4 (human) (UniProt P54760)
ERN1 (human) = ERN1 (human) (UniProt O75460)
FLT3 (human) = FLT3 (human) (UniProt P36888)
GRK4 (human) = GRK4 (human) (UniProt P32298)
IKBKE (human) = IKBKE (human) (UniProt Q14164)
ITK (human) = ITK (human) (UniProt Q08881)
LCK (human) = LCK (human) (UniProt P06239)
LIMK1 (human) = LIMK1 (human) (UniProt P53667)
MAP3K7 (human) = MAP3K7 (human) (UniProt O43318)
MAPK3 (human) = MAPK3 (human) (UniProt P27361)
MAPK4 (human) = MAPK4 (human) (UniProt P31152)
MAPK8 (human) = MAPK8 (human) (UniProt P45983)
MARK4 (human) = MARK4 (human) (UniProt Q96L34)
MELK (human) = MELK (human) (UniProt Q14680)
NEK11 (human) = NEK11 (human) (UniProt Q8NG66)
NEK4 (human) = NEK4 (human) (UniProt P51957)
NIM1 (human) = NIM1 (human) (UniProt Q8IY84)
PIK3CB (human) = PIK3CB (human) (UniProt P42338)
PIM1 (human) = PIM1 (human) (UniProt P11309)
PLK4 (human) = PLK4 (human) (UniProt O00444)
PRKG1 (human) = PRKG1 (human) (UniProt Q13976)
[1] = tested on: RET (human), P07949 [M918T]
RIPK4 (human) = RIPK4 (human) (UniProt P57078)
RPS6KA4 KD1 (human) = RPS6KA4 KD1 (human) (UniProt O75676)
TNK2 (human) = TNK2 (human) (UniProt Q07912)
TTK (human) = TTK (human) (UniProt P33981)
WEE1 (human) = WEE1 (human) (UniProt P30291)
ZAP70 (human) = ZAP70 (human) (UniProt P43403)

Chain of CDC42BPA (human) (Q5VT25 whole entry, looked up): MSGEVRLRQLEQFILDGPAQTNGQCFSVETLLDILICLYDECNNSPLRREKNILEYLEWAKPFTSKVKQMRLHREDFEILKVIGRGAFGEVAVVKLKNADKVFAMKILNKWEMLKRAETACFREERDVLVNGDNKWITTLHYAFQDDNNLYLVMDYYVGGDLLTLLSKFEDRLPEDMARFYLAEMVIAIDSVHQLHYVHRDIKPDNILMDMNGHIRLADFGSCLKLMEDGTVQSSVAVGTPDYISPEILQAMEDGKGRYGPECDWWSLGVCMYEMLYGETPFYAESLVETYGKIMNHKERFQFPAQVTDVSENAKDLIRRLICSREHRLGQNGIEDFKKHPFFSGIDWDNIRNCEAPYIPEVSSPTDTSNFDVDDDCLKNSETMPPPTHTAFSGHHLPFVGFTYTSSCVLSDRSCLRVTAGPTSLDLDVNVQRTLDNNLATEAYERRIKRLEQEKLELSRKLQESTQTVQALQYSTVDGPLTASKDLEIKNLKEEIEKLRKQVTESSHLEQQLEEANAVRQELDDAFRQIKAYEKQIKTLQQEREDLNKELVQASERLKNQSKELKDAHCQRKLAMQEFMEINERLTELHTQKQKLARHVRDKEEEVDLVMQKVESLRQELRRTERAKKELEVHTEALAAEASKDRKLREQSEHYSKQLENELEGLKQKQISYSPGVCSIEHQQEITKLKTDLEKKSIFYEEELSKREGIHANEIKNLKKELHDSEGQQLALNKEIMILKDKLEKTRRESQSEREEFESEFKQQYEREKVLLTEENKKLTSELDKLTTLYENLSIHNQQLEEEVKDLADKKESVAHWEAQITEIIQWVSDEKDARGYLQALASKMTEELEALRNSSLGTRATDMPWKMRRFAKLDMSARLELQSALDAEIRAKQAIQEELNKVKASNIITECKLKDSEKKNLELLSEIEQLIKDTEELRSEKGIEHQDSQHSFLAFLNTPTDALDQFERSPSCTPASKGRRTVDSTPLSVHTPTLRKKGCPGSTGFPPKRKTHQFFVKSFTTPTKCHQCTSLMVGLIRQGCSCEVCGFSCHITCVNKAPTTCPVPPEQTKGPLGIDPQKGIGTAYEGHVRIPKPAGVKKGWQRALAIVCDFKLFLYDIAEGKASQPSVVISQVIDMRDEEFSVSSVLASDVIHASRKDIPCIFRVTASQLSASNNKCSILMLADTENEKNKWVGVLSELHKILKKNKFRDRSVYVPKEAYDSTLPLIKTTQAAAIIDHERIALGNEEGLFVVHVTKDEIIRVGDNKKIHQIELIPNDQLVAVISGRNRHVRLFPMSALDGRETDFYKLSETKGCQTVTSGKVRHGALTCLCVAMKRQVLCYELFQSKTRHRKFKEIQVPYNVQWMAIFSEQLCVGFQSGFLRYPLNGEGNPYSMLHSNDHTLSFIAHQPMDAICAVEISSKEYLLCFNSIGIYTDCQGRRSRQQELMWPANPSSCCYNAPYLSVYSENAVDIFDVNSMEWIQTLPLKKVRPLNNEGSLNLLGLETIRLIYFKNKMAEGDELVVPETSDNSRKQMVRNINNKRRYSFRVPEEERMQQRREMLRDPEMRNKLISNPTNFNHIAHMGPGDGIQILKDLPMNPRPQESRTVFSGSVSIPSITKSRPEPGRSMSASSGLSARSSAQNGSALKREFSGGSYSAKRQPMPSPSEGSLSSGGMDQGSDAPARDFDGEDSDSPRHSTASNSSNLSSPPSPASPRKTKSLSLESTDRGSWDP
Chain of LCK (human) (P06239 whole entry, looked up): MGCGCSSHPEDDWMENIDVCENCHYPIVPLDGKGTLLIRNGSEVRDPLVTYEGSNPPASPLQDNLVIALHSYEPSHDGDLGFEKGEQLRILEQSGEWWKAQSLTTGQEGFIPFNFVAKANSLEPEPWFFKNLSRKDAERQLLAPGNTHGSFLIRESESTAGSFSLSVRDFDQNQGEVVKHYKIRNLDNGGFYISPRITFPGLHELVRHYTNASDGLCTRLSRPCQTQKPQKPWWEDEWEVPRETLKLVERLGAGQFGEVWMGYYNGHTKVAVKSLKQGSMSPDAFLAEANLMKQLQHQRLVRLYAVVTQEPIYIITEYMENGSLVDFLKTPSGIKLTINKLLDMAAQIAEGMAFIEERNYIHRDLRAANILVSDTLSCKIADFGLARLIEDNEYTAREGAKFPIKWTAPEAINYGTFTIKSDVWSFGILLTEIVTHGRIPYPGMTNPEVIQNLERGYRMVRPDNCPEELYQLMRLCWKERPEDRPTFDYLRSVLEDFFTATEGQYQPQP
Chain of NIM1 (human) (Q8IY84 whole entry, looked up): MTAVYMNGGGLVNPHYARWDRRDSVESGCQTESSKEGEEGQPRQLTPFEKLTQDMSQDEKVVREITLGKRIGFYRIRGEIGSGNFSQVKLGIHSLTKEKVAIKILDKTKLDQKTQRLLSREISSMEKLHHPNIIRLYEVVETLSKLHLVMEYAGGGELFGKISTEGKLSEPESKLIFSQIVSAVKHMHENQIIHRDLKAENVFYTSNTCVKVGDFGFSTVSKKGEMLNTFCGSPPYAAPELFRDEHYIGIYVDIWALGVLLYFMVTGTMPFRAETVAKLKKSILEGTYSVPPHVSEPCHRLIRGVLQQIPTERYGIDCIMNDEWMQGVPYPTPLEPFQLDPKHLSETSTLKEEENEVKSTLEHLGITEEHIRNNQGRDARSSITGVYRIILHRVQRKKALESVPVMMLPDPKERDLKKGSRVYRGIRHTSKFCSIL
Chain of WEE1 (human) (P30291 whole entry, looked up): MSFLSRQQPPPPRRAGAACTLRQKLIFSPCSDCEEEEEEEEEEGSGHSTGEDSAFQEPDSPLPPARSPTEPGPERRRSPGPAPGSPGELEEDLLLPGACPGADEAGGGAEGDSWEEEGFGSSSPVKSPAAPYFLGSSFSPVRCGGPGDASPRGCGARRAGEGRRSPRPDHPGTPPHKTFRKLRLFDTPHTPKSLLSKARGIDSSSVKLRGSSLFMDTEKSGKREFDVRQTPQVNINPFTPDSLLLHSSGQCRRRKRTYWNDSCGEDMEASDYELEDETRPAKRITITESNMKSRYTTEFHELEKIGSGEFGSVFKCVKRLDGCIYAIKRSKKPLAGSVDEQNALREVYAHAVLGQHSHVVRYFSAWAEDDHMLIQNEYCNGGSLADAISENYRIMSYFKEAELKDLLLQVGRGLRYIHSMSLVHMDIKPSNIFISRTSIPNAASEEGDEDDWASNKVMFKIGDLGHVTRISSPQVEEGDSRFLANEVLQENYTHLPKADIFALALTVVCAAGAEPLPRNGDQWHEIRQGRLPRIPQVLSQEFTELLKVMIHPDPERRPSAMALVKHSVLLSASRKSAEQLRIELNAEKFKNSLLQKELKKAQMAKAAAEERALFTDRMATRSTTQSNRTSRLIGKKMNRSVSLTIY
Chain of PIM1 (human) (P11309 whole entry, looked up): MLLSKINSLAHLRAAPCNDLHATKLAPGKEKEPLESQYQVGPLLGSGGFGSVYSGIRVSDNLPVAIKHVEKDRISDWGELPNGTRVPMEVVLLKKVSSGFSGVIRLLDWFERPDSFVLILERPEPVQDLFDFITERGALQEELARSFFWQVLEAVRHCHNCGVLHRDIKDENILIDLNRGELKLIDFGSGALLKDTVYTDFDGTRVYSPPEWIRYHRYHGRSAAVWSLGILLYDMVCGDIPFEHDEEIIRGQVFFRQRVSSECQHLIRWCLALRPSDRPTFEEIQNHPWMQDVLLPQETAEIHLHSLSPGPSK
Chain of DDR1 (human) (Q08345 whole entry, looked up): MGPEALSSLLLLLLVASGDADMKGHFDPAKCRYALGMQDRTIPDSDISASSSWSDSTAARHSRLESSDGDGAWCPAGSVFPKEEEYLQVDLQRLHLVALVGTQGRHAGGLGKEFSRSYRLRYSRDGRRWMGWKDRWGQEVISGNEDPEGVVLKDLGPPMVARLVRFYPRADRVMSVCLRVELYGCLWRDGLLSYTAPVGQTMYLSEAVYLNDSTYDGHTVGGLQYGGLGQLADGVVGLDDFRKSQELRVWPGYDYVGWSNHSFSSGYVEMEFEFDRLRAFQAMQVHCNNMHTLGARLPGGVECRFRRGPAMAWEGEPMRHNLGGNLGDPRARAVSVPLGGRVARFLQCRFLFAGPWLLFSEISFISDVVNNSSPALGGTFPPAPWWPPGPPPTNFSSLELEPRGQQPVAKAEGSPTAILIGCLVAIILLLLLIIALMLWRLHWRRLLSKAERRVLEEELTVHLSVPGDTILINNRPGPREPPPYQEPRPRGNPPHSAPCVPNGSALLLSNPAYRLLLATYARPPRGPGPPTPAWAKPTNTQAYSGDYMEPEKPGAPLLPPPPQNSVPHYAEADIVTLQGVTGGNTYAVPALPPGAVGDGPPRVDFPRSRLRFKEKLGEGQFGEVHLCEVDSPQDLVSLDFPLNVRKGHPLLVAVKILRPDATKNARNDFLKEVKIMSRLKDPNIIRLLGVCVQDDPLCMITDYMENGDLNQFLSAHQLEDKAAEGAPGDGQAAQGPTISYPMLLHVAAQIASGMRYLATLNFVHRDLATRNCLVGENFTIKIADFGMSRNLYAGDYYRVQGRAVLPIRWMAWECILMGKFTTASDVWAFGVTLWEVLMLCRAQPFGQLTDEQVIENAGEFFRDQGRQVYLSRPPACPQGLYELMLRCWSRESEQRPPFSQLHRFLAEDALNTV
Chain of CDK5 (human) (Q00535 whole entry, looked up): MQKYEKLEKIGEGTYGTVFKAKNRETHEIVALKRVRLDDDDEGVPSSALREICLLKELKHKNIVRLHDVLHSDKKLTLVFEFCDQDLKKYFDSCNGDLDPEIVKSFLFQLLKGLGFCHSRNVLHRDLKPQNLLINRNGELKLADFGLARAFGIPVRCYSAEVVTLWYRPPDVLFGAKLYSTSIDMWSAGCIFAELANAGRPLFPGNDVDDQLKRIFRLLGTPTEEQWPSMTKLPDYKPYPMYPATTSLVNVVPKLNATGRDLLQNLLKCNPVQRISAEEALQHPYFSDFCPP

SMILES | kinase still bound, per cent of control (AKT3 (human)) [%] | kinase still bound, per cent of control (AXL (human)) [%] | kinase still bound, per cent of control (BRSK2 (human)) [%] | kinase still bound, per cent of control (BTK (human)) [%] | kinase still bound, per cent of control (CAMKK2 (human)) [%] | kinase still bound, per cent of control (CDC42BPA (human)) [%] | kinase still bound, per cent of control (CDK2 (human)) [%] | kinase still bound, per cent of control (CDK5 (human)) [%] | kinase still bound, per cent of control (DDR1 (human)) [%] | kinase still bound, per cent of control (DYRK2 (human)) [%] | kinase still bound, per cent of control (EPHA1 (human)) [%] | kinase still bound, per cent of control (EPHB4 (human)) [%] | kinase still bound, per cent of control (ERN1 (human)) [%] | kinase still bound, per cent of control (GRK4 (human)) [%] | kinase still bound, per cent of control (IKBKE (human)) [%] | kinase still bound, per cent of control (ITK (human)) [%] | kinase still bound, per cent of control (LCK (human)) [%] | kinase still bound, per cent of control (LIMK1 (human)) [%] | kinase still bound, per cent of control (MAP3K7 (human)) [%] | kinase still bound, per cent of control (MAPK3 (human)) [%] | further results
N#CCNC(=O)c1ccc(-c2ccnc(Nc3ccc(N4CCOCC4)cc3)n2)cc1 | 100 | 57 | 100 | 75 | 51 | 67 | 55 | 100 | 100 | 76 | 100 | 100 | 100 | 10 | 5.2 | 98 | 90 | 100 | 49 | 100 | kinase still bound, per cent of control (CDK7 (human)): 3.8%; kinase still bound, per cent of control (FLT3 (human)): 100%; kinase still bound, per cent of control (MAPK4 (human)): 93%; kinase still bound, per cent of control (MAPK8 (human)): 1%; kinase still bound, per cent of control (MARK4 (human)): 42%; kinase still bound, per cent of control (MELK (human)): 100%; kinase still bound, per cent of control (NEK11 (human)): 100%; kinase still bound, per cent of control (NEK4 (human)): 100%; kinase still bound, per cent of control (NIM1 (human)): 100%; kinase still bound, per cent of control (PIK3CB (human)): 100%; kinase still bound, per cent of control (PIM1 (human)): 100%; kinase still bound, per cent of control (PLK4 (human)): 15%; kinase still bound, per cent of control (PRKG1 (human)): 100%; kinase still bound, per cent of control [1]: 78%; kinase still bound, per cent of control (RIPK4 (human)): 100%; kinase still bound, per cent of control (RPS6KA4 KD1 (human)): 100%; kinase still bound, per cent of control (TNK2 (human)): 93%; kinase still bound, per cent of control (TTK (human)): 22%; kinase still bound, per cent of control (WEE1 (human)): 100%; kinase still bound, per cent of control (ZAP70 (human)): 91%
COCC(=O)NC/C=C/c1ccc2ncnc(Nc3ccc(Oc4ccc(C)nc4)c(C)c3)c2c1 | 100 | 68 | 100 | 68 | 85 | 100 | 92 | 100 | 52 | 100 | 88 | 95 | 82 | 100 | 100 | 92 | 59 | 93 | 100 | 95 | kinase still bound, per cent of control (CDK7 (human)): 100%; kinase still bound, per cent of control (FLT3 (human)): 100%; kinase still bound, per cent of control (MAPK4 (human)): 100%; kinase still bound, per cent of control (MAPK8 (human)): 66%; kinase still bound, per cent of control (MARK4 (human)): 100%; kinase still bound, per cent of control (MELK (human)): 92%; kinase still bound, per cent of control (NEK11 (human)): 100%; kinase still bound, per cent of control (NEK4 (human)): 100%; kinase still bound, per cent of control (NIM1 (human)): 87%; kinase still bound, per cent of control (PIK3CB (human)): 100%; kinase still bound, per cent of control (PIM1 (human)): 100%; kinase still bound, per cent of control (PLK4 (human)): 74%; kinase still bound, per cent of control (PRKG1 (human)): 100%; kinase still bound, per cent of control [1]: 77%; kinase still bound, per cent of control (RIPK4 (human)): 100%; kinase still bound, per cent of control (RPS6KA4 KD1 (human)): 97%; kinase still bound, per cent of control (TNK2 (human)): 78%; kinase still bound, per cent of control (TTK (human)): 80%; kinase still bound, per cent of control (WEE1 (human)): 100%; kinase still bound, per cent of control (ZAP70 (human)): 100%
COc1cc2ncn(-c3cc(OCc4ccccc4C(F)(F)F)c(C(N)=O)s3)c2cc1OC | 100 | 65 | 31 | 86 | 44 | 68 | 73 | 100 | 100 | 37 | 84 | 87 | 75 | 18 | 60 | 98 | 34 | 79 | 66 | 100 | kinase still bound, per cent of control (MAPK4 (human)): 100%; kinase still bound, per cent of control (MAPK8 (human)): 100%; kinase still bound, per cent of control (MARK4 (human)): 99%; kinase still bound, per cent of control (MELK (human)): 61%; kinase still bound, per cent of control (NEK11 (human)): 100%; kinase still bound, per cent of control (NEK4 (human)): 52%; kinase still bound, per cent of control (NIM1 (human)): 88%; kinase still bound, per cent of control (PIK3CB (human)): 54%; kinase still bound, per cent of control (PIM1 (human)): 89%; kinase still bound, per cent of control (PLK4 (human)): 29%; kinase still bound, per cent of control (PRKG1 (human)): 100%; kinase still bound, per cent of control [1]: 8%; kinase still bound, per cent of control (RIPK4 (human)): 100%; kinase still bound, per cent of control (RPS6KA4 KD1 (human)): 69%; kinase still bound, per cent of control (TNK2 (human)): 54%; kinase still bound, per cent of control (TTK (human)): 87%; kinase still bound, per cent of control (WEE1 (human)): 83%; kinase still bound, per cent of control (ZAP70 (human)): 95%
